These results are taken from PubChem BioAssay (NCI).

Experiment in all cases: NCI-60 cell line screen, 48 h
The subject of assay [1] is OVCAR-8 ovarian.
The test system of assay [2] is HL-60(TB) leukemia.
For assay [3], the system named is SF-295 CNS.
In assay [4] the test system is IGROV1 ovarian.
The subject of assay [5] is MALME-3M melanoma.
The test system of assay [6] is OVCAR-5 ovarian.
For assay [7], the system named is MDA-MB-231 breast.
Assay [8] relates to MDA-N.
The subject of assay [9] is COLO 205 colon.
Assay [10] deals with CCRF-CEM leukemia.
Assay [11] has as its system NCI-H522 lung.
Assay [12] deals with SK-MEL-5 melanoma.
In assay [13] the test system is DU-145 prostate.
The test system of assay [14] is HS 578T breast.
Assay [15] has as its system EKVX NSCLC.
For assay [16], the system named is T-47D breast.
Assay [17] relates to U251 CNS.
Assay [18] concerns SR leukemia.
Assay [19] deals with KM12 colon.
Assay [20] has as its system HCC-2998 colon.

Each structure is given as a SMILES string.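 Cells were grown in 96-well plates and exposed to each compound for 48 hours at five concentrations; endpoints were interpolated linearly between bracketing concentrations, or set to the highest concentration if not reached. TGI: total growth inhibition.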

As to `CC1(C)OC(=O)CC12CCN(Cc1ccccc1)CC2`, the TGI in [1], in assay [2], in [3], in assay [4], in assay [5] and in [6] was > 100 µM in each case. The TGI in assay [7], in assay [8], in [9], in [10], in assay [11] and in assay [12] was > 100 µM throughout. The TGI in assay [13], in assay [14], in assay [15], in assay [16], in assay [17] and in [18] was > 100 µM throughout.
As to `Cc1ccnc2c1ccc1nc3ccccc3n12`, the TGI in assay [1] was 92.4 µM; in assay [2] it was > 100 µM; in [3] it was > 100 µM; in [4], > 100 µM; in assay [6], > 100 µM; in assay [7], > 100 µM. Besides, the TGI in assay [8] was > 100 µM; in [9], > 100 µM; in [10], > 100 µM; in assay [11], 44.5 µM; in [12], 93.1 µM; in [13], > 100 µM. Moreover, the TGI in assay [14], in assay [15], in assay [16], in assay [19], in assay [18] and in assay [20] was > 100 µM throughout.
Turning to `O=c1c2c3c(sc2nc2n1N=CN(c1ccc(Cl)cc1)C2)CCCC3`, the TGI in assay [1] was > 100 µM; in assay [3] it was > 100 µM; in [4], > 100 µM; in assay [5] it was 97.9 µM; in assay [6], > 100 µM; in assay [7], > 100 µM. Further, the TGI in assay [8], in assay [9], in [10], in assay [11], in assay [12] and in assay [13] was > 100 µM each time. In addition, the TGI in assay [14] is 36.9 µM; in assay [15] it was > 100 µM; in assay [16], > 100 µM; in assay [19], > 100 µM; in assay [17] it was > 100 µM; in [18], 51.1 µM. Further, the TGI in assay [20] was 72 µM.
Regarding `C[C@@H]1OC2(O)[C@@H]3CCCN3C(=O)N(Cc3ccccc3)N2C1=O` (stereo partly specified), the TGI in assay [1], in assay [2], in [3], in assay [4], in assay [5] and in assay [6] was > 100 µM throughout. Besides, the TGI in assay [7], in assay [8], in assay [9], in assay [10], in assay [12] and in assay [13] was > 100 µM each time. Besides, the TGI in [14], in [15], in assay [16], in [19], in assay [18] and in [20] was > 100 µM throughout.
`O=C1CCSc2c(cnc3ccccc23)N1`: the TGI in assay [1], in assay [2], in assay [3], in assay [4], in assay [5] and in [6] was > 100 µM throughout. In addition, the TGI in assay [7], in assay [8], in assay [9], in assay [10], in assay [11] and in assay [12] was > 100 µM each time. For the same compound, the TGI in assay [13], in assay [14], in assay [15], in [16], in [19] and in assay [17] was > 100 µM each time. Besides, the TGI in [18] was > 100 µM.
`COC(=O)c1c(C(=O)OC)c(C(c2ccccc2)c2ccccc2)n(-c2ccccc2)c1Cl`: the TGI in [1], in assay [2], in assay [3], in assay [4], in assay [5] and in assay [6] was > 10 µM each time. In addition, the TGI in assay [7], in assay [8], in assay [9], in assay [10], in assay [12] and in assay [13] was > 10 µM each time. In addition, the TGI in [14], in [15], in assay [16], in assay [19], in assay [17] and in assay [18] was > 10 µM each time. In addition, in assay [20], the TGI is > 10 µM.
With `COC(=O)[C@]12CSC[C@H]1C[C@H](c1ccc(N(C)C)cc1)N2`, the TGI in assay [1], in assay [2], in assay [3], in assay [4], in [5] and in assay [6] was > 100 µM each time. In addition, the TGI in [7], in assay [8], in assay [9], in assay [10], in assay [12] and in assay [13] was > 100 µM in each case. Further, the TGI in assay [14], in assay [15], in assay [16], in assay [19], in assay [17] and in assay [18] was > 100 µM each time. Further, the TGI in assay [20] was > 100 µM.
`CC(C)(C)C(=O)Nc1cccc(-c2ccc[nH]2)n1`: the TGI in assay [1], in assay [3], in assay [4], in assay [5], in assay [6] and in [7] was > 100 µM each time. For the same compound, the TGI in [8], in assay [9], in assay [10], in assay [11], in assay [12] and in assay [13] was > 100 µM in each case. The TGI in [14] was 87.5 µM; in assay [15], > 100 µM; in assay [16], > 100 µM; in assay [19] it was > 100 µM; in assay [17], > 100 µM; in [18], > 100 µM. The TGI in [20] was > 100 µM.
Consider `COc1cc(/C=C2\N=C(c3ccccc3)N(/N=C/c3cc4cc(C)ccc4nc3Cl)C2=O)cc(OC)c1OC`, for which the TGI is > 100 µM in [1]; 28.2 µM in assay [2]; > 100 µM in assay [3]; > 100 µM in assay [4]; > 100 µM in [6]; > 100 µM in assay [7]. Also, the TGI in [8] is 48.6 µM; in assay [9], 63.7 µM; in [12], > 100 µM; in [13], 80.6 µM; in assay [14], 88.8 µM; in assay [15], > 100 µM. For the same compound, the TGI in assay [16] was 63.3 µM; in assay [19] it was > 100 µM; in assay [17], 51 µM; in [18] it was 57.4 µM; in assay [20], 45.4 µM.
Take `O=c1[nH]c(=O)n(C2CC(O)C(CO)O2)c2nc3ccc4ccccc4c3nc12` (stereo unspecified): the TGI in assay [1], in assay [3], in assay [4], in [5], in assay [6] and in assay [7] was > 100 µM each time. In addition, the TGI in [8], in assay [9], in assay [10], in assay [11], in [12] and in [13] was > 100 µM in each case. In addition, the TGI in [14], in assay [15], in assay [16], in assay [19], in assay [17] and in assay [18] was > 100 µM throughout. Besides, the TGI in assay [20] was > 100 µM.
On to `O=C(/C=C\c1ccccc1-c1ccccc1)c1ccccc1`, for which the TGI in assay [1], in [2], in assay [3], in [4], in [6] and in assay [7] was > 100 µM each time. For the same compound, the TGI in assay [8], in assay [9], in assay [10], in [11], in assay [12] and in assay [13] was > 100 µM throughout. The TGI is > 100 µM in [14]; > 100 µM in assay [15]; 96 µM in [16]; > 100 µM in [19]; > 100 µM in assay [17]; > 100 µM in assay [18]. In addition, the TGI in assay [20] was > 100 µM.
Regarding `CCOC(=O)c1c(NC(=O)c2ccc(OC)cc2)sc2c1CCCC2`, the TGI in assay [1], in assay [2], in assay [3], in assay [4], in [6] and in assay [7] was > 100 µM in each case. Besides, the TGI in [8], in assay [9], in [10], in [12], in [13] and in assay [14] was > 100 µM each time. The TGI in assay [15], in assay [16], in assay [19], in [17] and in [18] was > 100 µM each time.
